In ChEMBL document CHEMBL1629671, “Activity of posaconazole and other antifungal agents against Mucorales strains identified by sequencing of internal transcribed spacers” (2009):
≈ marks a conversion by molar mass, not a printed value.

Columns and labels:
Assay type in all cases: functional
[1] = test system: Cunninghamella bertholletiae; assay: Antifungal activity against Cunninghamella bertholletiae after 24 hrs by microdilution method
[2] = test system: Cunninghamella bertholletiae; assay: Antifungal activity against Cunninghamella bertholletiae after 48 hrs by microdilution method
[3] = Antifungal activity against Rhizopus microsporus after 48 hrs by microdilution method
Actinomucor [4] = assay: Antifungal activity against Actinomucor spp. after 24 hrs by microdilution method
Apophysomyces [5] = assay: Antifungal activity against Apophysomyces spp. after 48 hrs by microdilution method
Lichtheimia corymbifera [6] = assay: Antifungal activity against Mycocladus corymbifer after 48 hrs by microdilution method
Actinomucor [7] = assay: Antifungal activity against Actinomucor spp. after 48 hrs by microdilution method
Mucor circinelloides [8] = assay: Antifungal activity against Mucor circinelloides after 24 hrs by microdilution method
[9] = Antifungal activity against Rhizomucor pusillus after 24 hrs by microdilution method
Cunninghamella [10] = assay: Antifungal activity against Cunninghamella spp. after 48 hrs by microdilution method
Rhizopus arrhizus [11] = assay: Antifungal activity against Rhizopus oryzae after 48 hrs by microdilution method
Apophysomyces [12] = assay: Antifungal activity against Apophysomyces spp. after 24 hrs by microdilution method
[13] = Antifungal activity against Rhizomucor pusillus after 48 hrs by microdilution method
[14] = Antifungal activity against Rhizomucor variabilis after 48 hrs by microdilution method
Rhizopus arrhizus [15] = assay: Antifungal activity against Rhizopus oryzae after 24 hrs by microdilution method
Lichtheimia corymbifera [16] = assay: Antifungal activity against Mycocladus corymbifer after 24 hrs by microdilution method
Mucor circinelloides [17] = assay: Antifungal activity against Mucor circinelloides after 48 hrs by microdilution method
Cunninghamella [18] = assay: Antifungal activity against Cunninghamella spp. after 24 hrs by microdilution method
[19] = Antifungal activity against Rhizomucor variabilis after 24 hrs by microdilution method
[20] = Antifungal activity against Rhizopus microsporus after 24 hrs by microdilution method

Compound	MIC [1] [µg/mL]	MIC [2] [µg/mL]	MIC [3] [µg/mL]	MIC (Actinomucor [4]) [µg/mL]	MIC (Apophysomyces [5]) [µg/mL]	MIC (Lichtheimia corymbifera [6]) [µg/mL]	MIC (Actinomucor [7]) [µg/mL]	MIC (Mucor circinelloides [8]) [µg/mL]	MIC [9] [µg/mL]	MIC (Cunninghamella [10]) [µg/mL]	MIC (Rhizopus arrhizus [11]) [µg/mL]	MIC (Apophysomyces [12]) [µg/mL]	MIC [13] [µg/mL]	MIC [14] [µg/mL]	MIC (Rhizopus arrhizus [15]) [µg/mL]	MIC (Lichtheimia corymbifera [16]) [µg/mL]	MIC (Mucor circinelloides [17]) [µg/mL]	MIC (Cunninghamella [18]) [µg/mL]	MIC [19] [µg/mL]	MIC [20] [µg/mL]
C[C@@H]1[C@H](O)[C@@H](C)/C=C/C=C/C=C/C=C/C=C/C=C/C=C/[C@H](O[C@@H]2O[C@H](C)[C@@H](O)[C@H](N)[C@@H]2O)C[C@@H]2O[C@](O)(C[C@@H](O)C[C@@H](O)[C@H](O)CC[C@@H](O)C[C@@H](O)CC(=O)O[C@H]1C)C[C@H](O)[C@H]2C(=O)O [AMPHOTERICIN B]	7.13 (≈ 7.72 µM)	7.13 (≈ 7.72 µM)	0.89 (≈ 0.963 µM)	1 (≈ 1.08 µM)	8 (≈ 8.66 µM)	0.14 (≈ 0.152 µM)	1.41 (≈ 1.53 µM)	0.05 (≈ 0.0541 µM)	0.05 (≈ 0.0541 µM)	4 (≈ 4.33 µM)	1 (≈ 1.08 µM)	2 (≈ 2.16 µM)	0.1 (≈ 0.108 µM)	0.09 (≈ 0.0974 µM)	0.29 (≈ 0.314 µM)	0.08 (≈ 0.0866 µM)	0.15 (≈ 0.162 µM)	2.83 (≈ 3.06 µM)	0.03 (≈ 0.0325 µM)	0.45 (≈ 0.487 µM)
C[C@@H](c1nc(-c2ccc(C#N)cc2)cs1)[C@](O)(Cn1cncn1)c1ccc(F)cc1F [RAVUCONAZOLE]	8 (≈ 18.3 µM)	12.1 (≈ 27.7 µM)	1.78 (≈ 4.07 µM)	0.25 (≈ 0.571 µM)	4 (≈ 9.14 µM)	2 (≈ 4.57 µM)	0.5 (≈ 1.14 µM)	11.9 (≈ 27.2 µM)	0.66 (≈ 1.51 µM)	8 (≈ 18.3 µM)	1.32 (≈ 3.02 µM)	2 (≈ 4.57 µM)	0.87 (≈ 1.99 µM)	16 (≈ 36.6 µM)	1 (≈ 2.29 µM)	1.22 (≈ 2.79 µM)	13.1 (≈ 30 µM)	1 (≈ 2.29 µM)	8 (≈ 18.3 µM)	0.89 (≈ 2.03 µM)
C[C@@H](c1ncncc1F)[C@](O)(Cn1cncn1)c1ccc(F)cc1F [VORICONAZOLE]	16 (≈ 45.8 µM)	16 (≈ 45.8 µM)	8.98 (≈ 25.7 µM)	16 (≈ 45.8 µM)	16 (≈ 45.8 µM)	16 (≈ 45.8 µM)	22.6 (≈ 64.8 µM)	16 (≈ 45.8 µM)	5.28 (≈ 15.1 µM)	16 (≈ 45.8 µM)	16 (≈ 45.8 µM)	16 (≈ 45.8 µM)	6.06 (≈ 17.3 µM)	16 (≈ 45.8 µM)	12.1 (≈ 34.7 µM)	14.5 (≈ 41.5 µM)	16 (≈ 45.8 µM)	16 (≈ 45.8 µM)	16 (≈ 45.8 µM)	8 (≈ 22.9 µM)
CCC(C)n1ncn(-c2ccc(N3CCN(c4ccc(OCC5COC(Cn6cncn6)(c6ccc(Cl)cc6Cl)O5)cc4)CC3)cc2)c1=O (stereo not given) [ITRACONAZOLE]	3.17 (≈ 4.49 µM)	10.1 (≈ 14.3 µM)	3.56 (≈ 5.05 µM)	2 (≈ 2.83 µM)	16 (≈ 22.7 µM)	1.35 (≈ 1.91 µM)	2 (≈ 2.83 µM)	11.9 (≈ 16.8 µM)	0.29 (≈ 0.411 µM)	4 (≈ 5.67 µM)	6.96 (≈ 9.86 µM)	16 (≈ 22.7 µM)	0.44 (≈ 0.624 µM)	16 (≈ 22.7 µM)	4 (≈ 5.67 µM)	0.68 (≈ 0.964 µM)	16 (≈ 22.7 µM)	0.5 (≈ 0.709 µM)	16 (≈ 22.7 µM)	1.59 (≈ 2.25 µM)
CN(C/C=C/C#CC(C)(C)C)Cc1cccc2ccccc12 [TERBINAFINE]	0.4 (≈ 1.37 µM)	0.49 (≈ 1.68 µM)	1.41 (≈ 4.84 µM)	0.125 (≈ 0.429 µM)	2 (≈ 6.86 µM)	1 (≈ 3.43 µM)	0.36 (≈ 1.24 µM)	21.5 (≈ 73.9 µM)	0.22 (≈ 0.755 µM)	0.18 (≈ 0.618 µM)	32 (≈ 110 µM)	2 (≈ 6.86 µM)	0.33 (≈ 1.13 µM)	32 (≈ 110 µM)	24.2 (≈ 83.2 µM)	0.5 (≈ 1.72 µM)	32 (≈ 110 µM)	0.13 (≈ 0.446 µM)	32 (≈ 110 µM)	0.71 (≈ 2.44 µM)
CC[C@@H]([C@H](C)O)n1ncn(-c2ccc(N3CCN(c4ccc(OC[C@@H]5CO[C@@](Cn6cncn6)(c6ccc(F)cc6F)C5)cc4)CC3)cc2)c1=O [POSACONAZOLE]	2.3 (≈ 3.28 µM)	4.59 (≈ 6.55 µM)	3.17 (≈ 4.52 µM)	0.06 (≈ 0.0856 µM)	1 (≈ 1.43 µM)	0.67 (≈ 0.956 µM)	0.125 (≈ 0.178 µM)	1.49 (≈ 2.13 µM)	0.16 (≈ 0.228 µM)	4 (≈ 5.71 µM)	2 (≈ 2.85 µM)	0.5 (≈ 0.713 µM)	0.28 (≈ 0.4 µM)	16 (≈ 22.8 µM)	1.15 (≈ 1.64 µM)	0.41 (≈ 0.585 µM)	2.69 (≈ 3.84 µM)	0.25 (≈ 0.357 µM)	1.41 (≈ 2.01 µM)	0.79 (≈ 1.13 µM)
